Values quoted from earlier work as cited in patent US20160346267A1, “Pharmaceutical Composition Comprising Apixaban” (SANDOZ AG, priority 2014, published 2016).

## COc1ccc(-n2nc(C(N)=O)c3c2C(=O)N(c2ccc(N4CCCCC4=O)cc2)CC3)cc1 [Apixaban, 1-(4-methoxyphenyl)-7-oxo-6-(4-(2-oxopiperidin-1-yl)phenyl)-4,5,6,7-tetrahydro-1H-pyrazolo[3,4-c]pyridine-3-carboxamide]
  solubility: poorly soluble
